Results published in patent US10407467B2, “Polymyxin derivatives and their use in combination therapy together with different antibiotics” (priority 2013, dated 2019).
Counter-ions that a name gives are not always drawn. Bridge positions count the residues as written; N and C are the ends. Square brackets hold non-standard residues; d marks the D form. Peptide text beside a SMILES is read from it. * marks the point of attachment. ξ: configuration not given here. ξHexahydromandeloyl = O=C(C(O)C1CCCCC1)*; Cyclohexylacetyl = O=C(CC1CCCCC1)*; Thr(3ξ) = CC(O)[C@H](N)C(=O)O; Octanoyl = CCCCCCCC(=O)*; Dab = NCC[C@H](N)C(=O)O; X4 = NC1CCCC1C(=O)*

Key:
Assay type in all cases: cell-based
[1] = system: Klebsiella pneumoniae; assay: MIC, compound in combination with a second agent (broth microdilution); settings: for MIC K. pneumoniae ATCC 4352: strain ATCC 4352
Outline: (§1)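 MIC values express combined concentration of test compound plus partner agent such as rifampicin, mixed at equal mass (1:1 w/w, salt-form weight). Direct colony suspensions at 0.5 McFarland, up to four strains per species, tested in duplicate; >2-fold disagreement invalid, otherwise lower value or mode of repeats reported.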

[2] = system: Acinetobacter baumannii; assay: as above; settings: 1:1 (wt:wt) combination with Rifampicin
Outline: as §1

[3] = system: Pseudomonas aeruginosa; assay: as above; settings: 1:1 (wt:wt) combination with Rifampicin
Outline: as §1

[4] = system: Escherichia coli; assay: as above; settings: 1:1 (wt:wt) combination with Rifampicin
Outline: as §1

[5] = system: Klebsiella pneumoniae; assay: MIC, sole activity (no second agent); settings: in the absence of Rifampicin
Outline: (§2)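 Up to four strains per species were tested in cation-adjusted Mueller-Hinton broth, with inoculum made by direct colony suspension from 18-24 hour Mueller-Hinton agar plates, adjusted to 0.5 McFarland. Duplicates differing by under 2-fold gave the lower value; greater spread voided the run. Values are relative to Polymyxin B.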

[6] = system: Acinetobacter baumannii; assay: MIC, sole activity (no second agent); settings: in the absence of Rifampicin
Outline: as §2

[7] = system: Pseudomonas aeruginosa; assay: MIC, sole activity (no second agent); settings: in the absence of Rifampicin
Outline: as §2

[8] = 1:1 (wt:wt) combination with Rifampicin, MIC = total drug concentration
[9] = 1:1 (wt:wt) combination with Rifampicin, MIC = total drug concentration, strain ATCC-BAA-2146
[10] = 1:1 (wt:wt) combination with Rifampicin, MIC = total drug concentration, strain CCUG-59348
[11] = MIC = total drug concentration, strain ATCC BAA-747
[12] = MIC = total drug concentration, strain CCUG57249
[13] = MIC = total drug concentration, strain NCTC 13423
[14] = MIC = total drug concentration, strain NCTC 13424
[15] = MIC = total drug concentration, strain ATCC 27853
[16] = MIC = total drug concentration, strain ATCC CRM-9027
[17] = MIC = total drug concentration, strain ATCC-47
[18] = MIC = total drug concentration, strain CCUG 59626
[19] = MIC = total drug concentration, strain ATCC25922
[20] = MIC = total drug concentration, strain NCTC9001
[21] = 1:1 (wt:wt) combination with Rifampicin, MIC is total drug concentration
[22] = MIC is total drug concentration
[23] = Ratio of Compound to Rifampicin 1:1, total drug concentration
[24] = Ratio of Compound to Rifampicin 1:3, total drug concentration
[25] = Ratio of Compound to Rifampicin 3:1, total drug concentration

For `CC(C)C[C@@H]1NC(=O)[C@@H](Cc2ccccc2)NC(=O)[C@H](CCN)NC(=O)[C@@H](NC(=O)[C@H](CCN)NC(=O)[C@@H](NC(=O)C2CCCC2N)C(C)O)CCNC(=O)[C@H](C(C)O)NC(=O)[C@H](CCN)NC(=O)[C@H](CCN)NC1=O` (stereo partly drawn) [Example 7, (1R,S/2R,S)-2-Aminocyclopentane-carbonyl polymyxin B nonapeptide] (X4-[Thr(3ξ)][Dab][Dab][Dab][dF]L[Dab][Dab][Thr(3ξ)]; lactam 3-C), the “MIC K. pneumoniae ATCC 4352” value [1, 8] was 0.125 micrograms/mL, the “MIC K. pneumoniae ATCC-BAA-2146” value [1, 9] was 0.25 micrograms/mL and the “MIC K. pneumoniae CCUG-59348” value [1, 10] was 4 micrograms/mL. The “MIC K. pneumoniae NCTC 13438” value ([1]; 1:1 (wt:wt) combination with Rifampicin, MIC = total drug concentration, strain NCTC 13438) was 0.5 micrograms/mL, the “MIC A. baumannii ATCC BAA-747” value [2, 11] was ≤0.06 micrograms/mL and the “MIC A. baumannii CCUG57249” value [2, 12] was ≤0.06 micrograms/mL. For the same molecule, the “MIC A. baumannii NCTC 13423” value [2, 13] was ≤0.06 micrograms/mL, the “MIC A. baumannii NCTC 13424” value [2, 14] was 0.125 micrograms/mL and the “MIC P. aeruginosa ATCC 27853” value [3, 15] was 0.125 micrograms/mL. For the same molecule, the “MIC P. aeruginosa ATCC CRM-9027” value [3, 16] was 0.25 micrograms/mL, the “MIC P. aeruginosa ATCC-47” value [3, 17] was 0.25 micrograms/mL and the “MIC P. aeruginosa CCUG 59626” value [3, 18] was 0.125 micrograms/mL. The “MIC E. coli ATCC25922” value [4, 19] was ≤0.06 micrograms/mL, the “MIC E. coli NCTC9001” value [4, 20] was 0.25 micrograms/mL and the “MIC K. pneumoniae ATCC 4352” value ([5]; strain ATCC 4352) was 0.5 micrograms/mL. The “MIC K. pneumoniae ATCC-BAA2146” value ([5]; strain ATCC-BAA2146) was >32 micrograms/mL, the “MIC K. pneumoniae CCUG-59348” value ([5]; strain CCUG-59348) was >32 micrograms/mL and the “MIC A. baumannii ATCC13424” value ([6]; strain ATCC13424) was 2 micrograms/mL. The “MIC A. baumannii ATCCBAA-747” value ([6]; strain ATCCBAA-747) was 1 micrograms/mL, the “MIC A. baumannii CCUG57249” value ([6]; strain CCUG 57249) was 2 micrograms/mL and the “MIC A. baumannii NCTC 13423” value ([6]; strain NCTC13423) was 1 micrograms/mL. For the same molecule, the “MIC P. aeruginosa ATCC 27853” value ([7]; strain ATCC27853) was 0.125 micrograms/mL, the “MIC P. aeruginosa ATCC-47” value ([7]; strain ATCC-47) was 1 micrograms/mL and the “MIC P. aeruginosa ATCCCRM-9027” value ([7]; strain ATCCCRM-9027) was 0.125 micrograms/mL. For the same molecule, the “MIC P. aeruginosa CCUG 59626” value ([7]; strain CCUG 59626) was 0.125 micrograms/mL.

`CC(C)C[C@@H]1NC(=O)[C@@H](Cc2ccccc2)NC(=O)[C@H](CCN)NC(=O)[C@@H](NC(=O)[C@@H](CO)NC(=O)[C@@H](NC(=O)C(O)C2CCCCC2)C(C)O)CCNC(=O)[C@H](C(C)O)NC(=O)[C@H](CCN)NC(=O)[C@H](CCN)NC1=O` (stereo partly drawn) [Example 46, [2-cyclohexyl-2-hydroxyethanoyl]-L-Thr-D-Ser-polymyxin B heptapeptide, TFA salt] (ξHexahydromandeloyl-[Thr(3ξ)][dS][Dab][Dab][dF]L[Dab][Dab][Thr(3ξ)]; lactam 3-C) was tested, and the “MIC K. pneumoniae ATCC 4352” value [1, 8] was 0.125 micrograms/mL, the “MIC K. pneumoniae ATCC-BAA-2146” value [1, 9] was 1 micrograms/mL and the “MIC K. pneumoniae CCUG-59348” value [1, 10] was 2 micrograms/mL. The “MIC A. baumannii ATCC BAA-747” value [2, 11] was ≤0.06 micrograms/mL, the “MIC A. baumannii CCUG57249” value [2, 12] was 0.125 micrograms/mL and the “MIC A. baumannii NCTC 13423” value [2, 13] was 0.125 micrograms/mL. The “MIC A. baumannii NCTC 13424” value [2, 14] was ≤0.06 micrograms/mL, the “MIC P. aeruginosa ATCC 27853” value [3, 15] was 1 micrograms/mL and the “MIC P. aeruginosa ATCC CRM-9027” value [3, 16] was 1 micrograms/mL. For the same molecule, the “MIC P. aeruginosa ATCC-47” value [3, 17] was 2 micrograms/mL, the “MIC P. aeruginosa CCUG 59626” value [3, 18] was 1 micrograms/mL and the “MIC E. coli ATCC25922” value [4, 19] was 0.125 micrograms/mL. For the same molecule, the “MIC E. coli NCTC9001” value [4, 20] was 0.25 micrograms/mL.

`CCCCCCCC(=O)N[C@H](C(=O)N[C@H](CO)C(=O)N[C@H]1CCNC(=O)[C@H](C(C)O)NC(=O)[C@H](CCN)NC(=O)[C@H](CCN)NC(=O)[C@H](CC(C)C)NC(=O)[C@@H](Cc2ccccc2)NC(=O)[C@H](CCN)NC1=O)C(C)O` (some centres unmarked) [Example C1, NAB-739 TFA salt, reference compound] (Octanoyl-[Thr(3ξ)][dS][Dab][Dab][dF]L[Dab][Dab][Thr(3ξ)]; lactam 3-C) was tested, and the “MIC K. pneumoniae ATCC 4352” value [1, 8] was 0.5 micrograms/mL, the “MIC K. pneumoniae ATCC-BAA-2146” value [1, 9] was 2 micrograms/mL and the “MIC K. pneumoniae CCUG-59348” value [1, 10] was 4 micrograms/mL. The “MIC A. baumannii ATCC BAA-747” value [2, 11] was 0.5 micrograms/mL, the “MIC A. baumannii CCUG57249” value [2, 12] was 0.5 micrograms/mL and the “MIC A. baumannii NCTC 13423” value [2, 13] was 0.5 micrograms/mL. For the same molecule, the “MIC A. baumannii NCTC 13424” value [2, 14] was 0.5 micrograms/mL, the “MIC P. aeruginosa ATCC 27853” value [3, 15] was 2 micrograms/mL and the “MIC P. aeruginosa ATCC CRM-9027” value [3, 16] was 2 micrograms/mL. For the same molecule, the “MIC P. aeruginosa ATCC-47” value [3, 17] was 4 micrograms/mL, the “MIC P. aeruginosa CCUG 59626” value [3, 18] was 2 micrograms/mL and the “MIC E. coli ATCC25922” value [4, 19] was 0.5 micrograms/mL. The “MIC E. coli NCTC9001” value [4, 20] was 1 micrograms/mL.

In the case of `CC(C)C[C@@H]1NC(=O)[C@@H](Cc2ccccc2)NC(=O)[C@H](CCN)NC(=O)[C@@H](NC(=O)[C@H](CCN)NC(=O)[C@@H](NC(=O)CC2CCCCC2)C(C)O)CCNC(=O)[C@H](C(C)O)NC(=O)[C@H](CCN)NC(=O)[C@H](CCN)NC1=O` (some centres unmarked) [Example C4, Cyclohexyl ethanoyl polymyxin B nonapeptide, TFA salt, reference compound] (Cyclohexylacetyl-[Thr(3ξ)][Dab][Dab][Dab][dF]L[Dab][Dab][Thr(3ξ)]; lactam 3-C), the “MIC K. pneumoniae ATCC-BAA-2146” value [1, 21] is reported as 1 micrograms/mL, the “MIC K. pneumoniae CCUG-59348” value [1, 21] is reported as 2 micrograms/mL and the “MIC K. pneumoniae NCTC 13438” value [1, 21] is reported as 0.5 micrograms/mL. For the same molecule, the “MIC A. baumannii ATCC BAA-747” value [2, 22] was 0.25 micrograms/mL, the “MIC A. baumannii CCUG57249” value [2, 22] was 0.25 micrograms/mL and the “MIC A. baumannii NCTC 13423” value [2, 22] was 0.125 micrograms/mL. The “MIC A. baumannii NCTC 13424” value [2, 22] was 0.25 micrograms/mL, the “MIC P. aeruginosa ATCC 27853” value [3, 22] was 0.5 micrograms/mL and the “MIC P. aeruginosa ATCC CRM-9027” value [3, 22] was 0.5 micrograms/mL. For the same molecule, the “MIC P. aeruginosa ATCC-47” value [3, 22] was 1 micrograms/mL, the “MIC P. aeruginosa CCUG 59626” value [3, 22] was 0.25 micrograms/mL and the “MIC E. coli ATCC25922” value [4, 22] was 0.25 micrograms/mL. For the same molecule, the “MIC E. coli NCTC9001” value [4, 22] was 0.5 micrograms/mL.

With “Polymyxin B nonapeptide [PMBN, reference compound]” the “MIC K. pneumoniae ATCC 4352” value [1, 8] was 0.25 micrograms/mL, the “MIC K. pneumoniae ATCC-BAA-2146” value [1, 9] was 1 micrograms/mL and the “MIC K. pneumoniae CCUG-59348” value [1, 10] was 4 micrograms/mL. For the same molecule, the “MIC K. pneumoniae ATCC-BAA-2146” value [1, 23] was 2 micrograms/mL, the “MIC K. pneumoniae CCUG-59348” value [1, 23] was 4 micrograms/mL and the “MIC K. pneumoniae NCTC 13438” value [1, 23] was 2 micrograms/mL. For the same molecule, the “MIC K. pneumoniae ATCC-BAA-2146” value [1, 24] was 2 micrograms/mL, the “MIC K. pneumoniae CCUG-59348” value [1, 24] was 4 micrograms/mL and the “MIC K. pneumoniae NCTC 13438” value [1, 24] was 2 micrograms/mL. The “MIC K. pneumoniae ATCC-BAA-2146” value [1, 25] was 2 micrograms/mL, the “MIC K. pneumoniae CCUG-59348” value [1, 25] was 8 micrograms/mL and the “MIC K. pneumoniae NCTC 13438” value [1, 25] was 2 micrograms/mL. For the same molecule, the “MIC A. baumannii ATCC BAA-747” value [2, 11] was 0.25 micrograms/mL, the “MIC A. baumannii CCUG57249” value [2, 12] was 1 micrograms/mL and the “MIC A. baumannii NCTC 13423” value [2, 13] was 0.5 micrograms/mL. The “MIC A. baumannii NCTC 13424” value [2, 14] was 0.5 micrograms/mL, the “MIC P. aeruginosa ATCC 27853” value [3, 15] was 0.125 micrograms/mL and the “MIC P. aeruginosa ATCC CRM-9027” value [3, 16] was 0.125 micrograms/mL. The “MIC P. aeruginosa ATCC-47” value [3, 17] was 0.25 micrograms/mL, the “MIC P. aeruginosa CCUG 59626” value [3, 18] was 0.125 micrograms/mL and the “MIC E. coli ATCC25922” value [4, 19] was 0.5 micrograms/mL. For the same molecule, the “MIC E. coli NCTC9001” value [4, 20] was 1 micrograms/mL.
